Where “and” joins values, the source holds several entries; their conditions need not be identical. Equal values may be shown once.
Key:
[1] = molecular target: T1, full-length NS3/4A protease (genotype 1b) (Hepatitis C virus genotype 1b, UniProt Q9WMX2); experiment: biochemical; conditions: purified full-length NS3/4A, genotype 1b wild-type; read-out: IC50 Full-length NS3/4A
T1 construct: wild-type HCV NS3 (HCV polyprotein residues 1027–1657); His-tag (N); made in house
Procedure: All assays were done in duplicate in black 384-well plates (Matrix Technologies). […] 200 nL of 10 mM compound (50 µM final concentrations) were then added and incubated for 5 minutes. Enzyme reactions were initiated with 10 µL of substrate Ac-DE-Dap(QXL520)-EE-Abu-ψ-[COO]AS-C(5-FAMsp)-NH2 (Anaspec) (1 µM final concentration), incubated for 6 minutes, and quenched by 10 µL of 10% SDS as a stop solution. Fluorescence intensity was monitored with a POLARstar OPTIMA microplate reader (BMG LABTECH). Each plate contained a total of 32 positive and 32 negative controls.
A series of compound concentrations (0 to 200 µM final concentration at 2-fold serial dilution) in 100% DMSO were prepared in a 384-well plate. 20 µL of enzyme solution was distributed to wells, and 0.5 µL of varying concentration of compounds were added and incubated for 5 minutes. The enzyme reaction was initiated by adding 5 µL of the substrate, and its activity was continuously monitored for 6 minutes. The IC50 values were calculated by fitting with the Hill equation (1), with OriginPro 8.5 (OriginLab, Inc.) where y is percent inhibition, x is inhibitor concentration, n is the slope of the concentration–response curve (Hill slope), and Vmax is maximal inhibition from two to four independent assays. [drawing 1] (1)

full-length NS3/4A [2] = molecular target: T2, full-length NS3/4A (Hepatitis C virus genotype 1b, UniProt Q9WMX2); experiment: SPR binding assay (dissociation equilibrium constant KD); conditions: double referenced with blank and unrelated reference protein
T2 construct: wild-type HCV NS3 (HCV polyprotein residues 1027–1657); His-tag (N); made in house
Procedure: The full-length NS3/4A enzyme was prepared in a storage buffer (50 mM HEPES, pH 7.6, 500 mM NaCl, 1 mM DTT, 0.2% Triton X-100, and 20% glycerol) and immobilized on a CM5 sensor chip using standard amine-coupling at 25°C with running buffer HBS-P (10 mM HEPES, 150 mM NaCl, 0.05% surfactant P-20, pH 7.4) using a Biacore T100 instrument. Flow channels 1 and 3 were activated by 1-ethyl-3-(3-dimethylaminopropyl) carbodiimide hydrocholoride (EDC)/N-hydroxy succinimide (NHS) mixture, and the activated surface was blocked by ethanolamine (pH 8.5) as controls. The NS3/4A enzyme was diluted in 10 mM sodium acetate (pH 5.0), and immobilized to flow channel 4 after sensor surface activation with EDC/NHS with a 7 min injection followed by ethanolamine blocking on unoccupied surface area. NS3/4A immobilization level was ∼8,500 response units (RU). An unrelated reference protein (92 kDa) was also immobilized to flow channel 2 as another control to be compared with NS3/4A (74.6 kDa). Fifteen initial hit compounds were prepared as 10 mM DMSO stock solutions. Compound solutions with a series of increasing concentrations (0–200 µM at 1.5-fold dilution) were applied to all four channels at a 10 µL/min flow rate at 25°C. Sensorgrams were analyzed using Biaevaluation software 2.0.3, and response unit difference (ΔRU) values at each concentration were measured during the equilibration phase. Data were either single referenced with a blank (enthanolamine) or double referenced with both blank and reference protein RU values. SigmaPlot 11.0 was used to fit the data to a single rectangular hyperbolic curve to determine KD values. The hyperbola function, y = ymax·x/(KD+x), was used to plot response units and corresponding concentration, where y is the response, ymax is the maximum response, and x is the compound concentration.

full-length NS3/4A [3] = molecular target: T2, full-length NS3/4A; experiment: Type (mechanism) of enzyme inhibition, kinetic analysis; type: biochemical
Procedure: Full-length NS3/4A activity was monitored in the same way as the primary screening with varying concentration of both inhibitor compounds and substrate (0–8 µM). The concentration of compounds varied from 0 to 20 µM at 1.5-fold dilution factor.

[4] = molecular target: T3, NS3/4A protease genotype 1a (Hepatitis C virus genotype 1a, UniProt P27958); experiment: Inhibition assay with NS3/4A from genotype 1a; type: biochemical; conditions: IC50 NS3/4A genotype 1a
T3 construct: against the NS3/4A protease domains from three additional HCV genotypes (1a, 2a, and 4d); purchased Anaspec
Procedure: (§1) The inhibitory activity of the final hit compounds from HTS were tested against three other HCV genotypes (1a, 2a, and 4d), along with a control (genotype 1b) and five NS3 drug-resistant mutants. Eight full-length NS3 mutants (V36M, R155K, A156T, A156S, 156V, V36A, T54A, and R155T) were generated by mutagenesis and purified, and the three HCV NS3/4A protease genotypes were purchased from Anaspec. Unfortunately the enzyme activities of the three mutants V36A, T54A, and R155T were much less than that of the rest of the mutants and were insufficient for testing, therefore mutant studies were done with the five active mutants. Continuous kinetic assays were performed against all hit compounds in the same way as the wild-type NS3/4A. As a control, full-length NS3/4A (genotype 1b) was tested under the same conditions for direct comparison for each plate.

[5] = molecular target: T4, NS3/4A protease genotype 2a (Hepatitis C virus genotype 2a, UniProt Q99IB8); experiment: Inhibition assay with NS3/4A from genotype 2a; type: biochemical; conditions: IC50 Purified NS3/4A Sub-genotype 2a, genotype 2a
T4 construct: against the NS3/4A protease domains from three additional HCV genotypes (1a, 2a, and 4d); purchased Anaspec
Procedure: as §1

[6] = molecular target: NS3/4A protease genotype 4d (Hepatitis C virus subtype 4d, UniProt Q1ZZ56); experiment: Inhibition assay with NS3/4A from genotype 4d; type: biochemical
Procedure: as §1

[7] = molecular target: T5, full-length NS3/4A genotype 1b mutant A156T (Hepatitis C virus genotype 1b, UniProt Q9WMX2, A1182T); experiment: Inhibition assay with drug-resistant mutant A156T; type: biochemical; conditions: in words
T5 construct: wild-type HCV NS3 (HCV polyprotein residues 1027–1657); His-tag (N); made in house
Procedure: (§2) The full-length genes of wild-type HCV NS3 (HCV polyprotein residues 1027–1657) with a his-tag at the N-terminus and NS4A (residues 1658–1711) with no tag were cloned, co-expressed, and purified as described. Eight NS3 drug resistant mutants (V36M, V36A, T54A, R155K, R155T, A156T, A156S, and 156V) were generated by mutagenesis using full-length, wild-type NS3-containing recombinant plasmid (pETDuet-1/FL NS3/4A) as a template. The over-expression and purification of all mutants were performed by the same method as the wild-type with minor modifications.
as §1, with “As a control, full-length NS3/4A (genotype 1b) was tested under the same conditions for direct comparison for each plate.” left out

[8] = molecular target: T6, full-length NS3/4A genotype 1b mutant A156S (Hepatitis C virus genotype 1b, UniProt Q9WMX2, A1182S); experiment: Inhibition assay with drug-resistant mutant A156S; type: biochemical; conditions: in words
T6 construct: wild-type HCV NS3 (HCV polyprotein residues 1027–1657); His-tag (N); made in house
Procedure: as §2
as §1, with “As a control, full-length NS3/4A (genotype 1b) was tested under the same conditions for direct comparison for each plate.” left out

[9] = molecular target: T7, full-length NS3/4A genotype 1b mutant A156V (Hepatitis C virus genotype 1b, UniProt Q9WMX2, A1182V); experiment: Inhibition assay with drug-resistant mutant A156V; type: biochemical; conditions: genotype 1b full-length mutant
T7 construct: wild-type HCV NS3 (HCV polyprotein residues 1027–1657); His-tag (N); made in house
Procedure: as §2
as §1, with “As a control, full-length NS3/4A (genotype 1b) was tested under the same conditions for direct comparison for each plate.” left out

[10] = molecular target: T8, full-length NS3/4A genotype 1b mutant R155K (Hepatitis C virus genotype 1b, UniProt Q9WMX2, R1181K); experiment: Inhibition assay with drug-resistant mutant R155K; type: biochemical; conditions: in words
T8 construct: wild-type HCV NS3 (HCV polyprotein residues 1027–1657); His-tag (N); made in house
Procedure: as §2
as §1, with “As a control, full-length NS3/4A (genotype 1b) was tested under the same conditions for direct comparison for each plate.” left out

[11] = molecular target: T9, full-length NS3/4A genotype 1b mutant V36M (Hepatitis C virus genotype 1b, UniProt Q9WMX2, V1062M); experiment: Inhibition assay with drug-resistant mutant V36M; type: biochemical; conditions: genotype 1b full-length mutant
T9 construct: wild-type HCV NS3 (HCV polyprotein residues 1027–1657); His-tag (N); made in house
Procedure: as §2
as §1, with “As a control, full-length NS3/4A (genotype 1b) was tested under the same conditions for direct comparison for each plate.” left out

Trypsin = molecular target: T10, Trypsin (Homo sapiens, UniProt P07477); experiment: Inhibitor selectivity assay, trypsin (fluorometric); type: biochemical
T10 construct: purchased Sigma
Procedure: (§3) To test for selectivity, two human serine proteases, Trypsin and Chymotrypsin (Sigma), were tested with the top two hit compounds from HTS using a fluorometric assay. The fluorogenic substrates used in this study were N-benzoyl-L-Arg-7-amido-4-methylcoumarin (Sigma) and N-succinyl-Ala-Ala-Phe-7-amido-4- methylcoumarin (Sigma) for trypsin and chymotrypsin, respectively. All assays were performed in 384-well black plates (Corning) in a total volume of 24 µL of PBS (pH 7.4) buffer containing 0.01% Triton, 0.1 mg/mL BSA, and 2 mM GSH in triplicate. A series of compound concentrations (0 to 200 µM final concentration at 2-fold serial dilution) in 100% DMSO was prepared in a 384-well plate. 20 µL of trypsin (0.01 mg/mL) and chymotrypsin (0.0001 mg/mL) solutions were distributed into wells, and 0.5 µL of varying concentration of compounds were added and incubated for 10 minutes. The enzyme reaction was initiated by adding 5 µL of the substrate (50 µM final concentration), and fluorescence intensity was continuously monitored at excitation/emission wavelengths of 350 nm/460 nm for 10 minutes.

Chymotrypsin = molecular target: T11, Chymotrypsin (Homo sapiens, UniProt P17538); experiment: Inhibitor selectivity assay, chymotrypsin (fluorometric); type: biochemical; conditions: human chymotrypsin
T11 construct: purchased Sigma
Procedure: as §3

T11 sequence (P17538 19-263): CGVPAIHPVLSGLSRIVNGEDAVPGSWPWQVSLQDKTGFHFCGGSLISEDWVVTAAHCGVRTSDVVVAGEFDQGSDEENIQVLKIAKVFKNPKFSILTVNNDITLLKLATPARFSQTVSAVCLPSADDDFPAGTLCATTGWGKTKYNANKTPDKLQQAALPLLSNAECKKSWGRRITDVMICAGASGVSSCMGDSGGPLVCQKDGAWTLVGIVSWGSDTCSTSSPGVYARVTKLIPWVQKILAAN

## CC(C)C(=O)N1CCc2ccc(NC(=O)COc3ccc(F)cc3)cc2C1 [Compound 13]
[1]
  IC50: 20.2 ± 2.2 µM
full-length NS3/4A [2]
  SPR binding to NS3/4A, double referenced: specific binding
full-length NS3/4A [3]; competitive model, with respect to substrate
  Ki: 19.1 µM
full-length NS3/4A [3]; with respect to the substrate, best fit model
  mechanism of inhibition: competitive inhibitors
[4]
  IC50: 1.7 µM and < 20 µM
[5]
  IC50: < 20 µM
[6]
  IC50: < 20 µM
[7]
  activity against mutant A156T compared with wild-type: decreased in activity
[8]
  activity against mutant A156S compared with wild-type: decreased in activity
[9]
  IC50: < 20 µM
[10]
  activity against mutant R155K compared with wild-type: completely lost activity
[11]
  IC50: < 20 µM
Trypsin; 100 µM compound, read-out: Trypsin % Inh at 100 µM
  inhibition at 100 µM: 5.1%
Trypsin; human trypsin
  IC50: > 100 µM
Chymotrypsin
  IC50: 110 ± 32 µM

Source: article PMC3793977, “High-Throughput Screening (HTS) and Hit Validation to Identify Small Molecule Inhibitors with Activity against NS3/4A proteases from Multiple Hepatitis C Virus Genotypes” (PLoS ONE, 2013)
